From publication PMC5218480 (PLoS ONE, 2017)

System: MV-4-11 cells
Assay: Gene expression microarray analysis (Affymetrix PrimeView) and GSEA
Format: cell-based, human
Parameters: RFU PODN (11730768_x_at) / Fold change /veh PODN (11730768_x_at) / RFU LINC00158 (11744669_a_at) / Fold change /veh LINC00158 (11744669_a_at) / RFU DUSP10 (11751237_a_at) / Fold change /veh DUSP10 (11751237_a_at) / RFU ID3 (11757404_x_at) / Fold change /veh ID3 (11757404_x_at) / RFU PLEKHG5 (11737974_s_at) / Fold change /veh PLEKHG5 (11737974_s_at) / RFU LRRC4B (11730491_at) / Fold change /veh LRRC4B (11730491_at) / RFU GIMAP4 (11747438_a_at) / Fold change /veh GIMAP4 (11747438_a_at) / RFU KRT8 (11758183_x_at) / Fold change /veh KRT8 (11758183_x_at) / RFU CNN1 (11734310_a_at) / Fold change /veh CNN1 (11734310_a_at) / RFU VPS37D (11726825_at) / Fold change /veh VPS37D (11726825_at) / RFU C10orf10 (11716522_x_at) / Fold change /veh C10orf10 (11716522_x_at) / RFU KIR2DL2 /// KIR2DL4 /// KIR2DL5A /// KIR2DL5B /// KIR2DS1 /// KIR2DS2 /// KIR2DS3 /// KIR2DS4 /// KIR3DL3 /// KIR3DL3 /// KIR3DS1 (11738374_at) / Fold change /veh KIR2DL2 /// KIR2DL4 /// KIR2DL5A /// KIR2DL5B /// KIR2DS1 /// KIR2DS2 /// KIR2DS3 /// KIR2DS4 /// KIR3DL3 /// KIR3DL3 /// KIR3DS1 (11738374_at) / RFU C1QL1 (11718748_at) / Fold change /veh C1QL1 (11718748_at) / RFU TMPRSS4 (11747572_a_at) / Fold change /veh TMPRSS4 (11747572_a_at) / RFU HAMP (11756126_x_at) / Fold change /veh HAMP (11756126_x_at) / RFU RNFT2 (11725882_a_at) / Fold change /veh RNFT2 (11725882_a_at) / RFU NR4A2 (11747474_a_at) / Fold change /veh NR4A2 (11747474_a_at) / RFU ABCC12 (11746883_a_at) / Fold change /veh ABCC12 (11746883_a_at) / RFU TMEM136 (11760407_x_at) / Fold change /veh TMEM136 (11760407_x_at) / RFU CLDN22 /// WWC2 (11732394_at) / Fold change /veh CLDN22 /// WWC2 (11732394_at) / RFU HLA-DPB1 (11760878_x_at) / Fold change /veh HLA-DPB1 (11760878_x_at) / RFU SPINT1 (11716480_a_at) / Fold change /veh SPINT1 (11716480_a_at) / RFU GAP43 (11754022_s_at) / Fold change /veh GAP43 (11754022_s_at) / RFU A4GNT (11735810_at) / Fold change /veh A4GNT (11735810_at) / RFU PRB3 (11715151_x_at) / Fold change /veh PRB3 (11715151_x_at) / RFU TUBB4B (11761932_at) / Fold change /veh TUBB4B (11761932_at) / RFU CAPN14 (11732068_a_at) / Fold change /veh CAPN14 (11732068_a_at) / RFU TMCC2 (11721928_a_at) / Fold change /veh TMCC2 (11721928_a_at) / RFU IRGQ (11745062_a_at) / Fold change /veh IRGQ (11745062_a_at) / RFU FAM174B (11720279_a_at) / Fold change /veh FAM174B (11720279_a_at) / RFU TMPRSS4 (11748680_a_at) / Fold change /veh TMPRSS4 (11748680_a_at) / RFU FAM212B (11763350_a_at) / Fold change /veh FAM212B (11763350_a_at) / RFU PLEKHG5 (11743358_a_at) / Fold change /veh PLEKHG5 (11743358_a_at) / RFU ZSCAN30 (11745921_a_at) / Fold change /veh ZSCAN30 (11745921_a_at) / RFU CMKLR1 (11741424_a_at) / Fold change /veh CMKLR1 (11741424_a_at) / RFU LOC101060620 /// MAPK8IP1 (11723275_at) / Fold change /veh LOC101060620 /// MAPK8IP1 (11723275_at) / RFU SPTSSB (11747773_x_at) / Fold change /veh SPTSSB (11747773_x_at) / RFU PRSS12 (11739890_at) / Fold change /veh PRSS12 (11739890_at) / RFU BIN1 (11741810_x_at) / Fold change /veh BIN1 (11741810_x_at) / RFU WNT11 (11732464_a_at) / Fold change /veh WNT11 (11732464_a_at) / RFU C10orf10 (11716521_a_at) / Fold change /veh C10orf10 (11716521_a_at) / RFU C5orf56 (11738089_at) / Fold change /veh C5orf56 (11738089_at) / RFU CYB561 (11721691_x_at) / Fold change /veh CYB561 (11721691_x_at) / RFU ANKRD19P (11752326_a_at) / Fold change /veh ANKRD19P (11752326_a_at) / RFU OR2T12 /// OR2T33 /// OR2T8 (11738714_s_at) / Fold change /veh OR2T12 /// OR2T33 /// OR2T8 (11738714_s_at) / RFU VCAN (11748164_a_at) / Fold change /veh VCAN (11748164_a_at) / RFU JSRP1 (11732532_at) / Fold change /veh JSRP1 (11732532_at) / RFU KRTAP10-11 (11738290_x_at) / Fold change /veh KRTAP10-11 (11738290_x_at) / RFU MYO3A (11730013_a_at) / Fold change /veh MYO3A (11730013_a_at) / RFU EBF3 (11725865_a_at) / Fold change /veh EBF3 (11725865_a_at) / RFU CAMK2N1 (11719241_x_at) / Fold change /veh CAMK2N1 (11719241_x_at) / RFU C5orf56 (11738088_a_at) / Fold change /veh C5orf56 (11738088_a_at) / RFU OLFML3 (11715873_a_at) / Fold change /veh OLFML3 (11715873_a_at) / RFU LOC100653217 /// NTM (11731650_a_at) / Fold change /veh LOC100653217 /// NTM (11731650_a_at) / RFU MAPK11 (11762145_a_at) / Fold change /veh MAPK11 (11762145_a_at) / RFU FIZ1 (11724087_x_at) / Fold change /veh FIZ1 (11724087_x_at) / RFU OASL (11726364_x_at) / Fold change /veh OASL (11726364_x_at) / RFU SOX15 (11748057_x_at) / Fold change /veh SOX15 (11748057_x_at) / RFU CD79A (11719716_a_at) / Fold change /veh CD79A (11719716_a_at) / RFU HIST1H1D (11736915_at) / Fold change /veh HIST1H1D (11736915_at) / RFU CASKIN2 (11723855_a_at) / Fold change /veh CASKIN2 (11723855_a_at) / RFU LOC730098 (11760151_x_at) / Fold change /veh LOC730098 (11760151_x_at) / RFU OR4N2 (11742367_at) / Fold change /veh OR4N2 (11742367_at) / RFU PRRT2 (11749266_a_at) / Fold change /veh PRRT2 (11749266_a_at) / RFU SNX32 (11753110_a_at) / Fold change /veh SNX32 (11753110_a_at) / RFU CDHR5 (11726645_a_at) / Fold change /veh CDHR5 (11726645_a_at) / RFU RCAN1 (11760418_a_at) / Fold change /veh RCAN1 (11760418_a_at) / RFU FAM167A (11723789_a_at) / Fold change /veh FAM167A (11723789_a_at) / RFU FAM26E (11764081_at) / Fold change /veh FAM26E (11764081_at) / RFU ISYNA1 (11749810_s_at) / Fold change /veh ISYNA1 (11749810_s_at) / RFU ACY1 (11761880_at) / Fold change /veh ACY1 (11761880_at) / RFU 11764098_at / Fold change /veh 11764098_at / RFU SAMD14 (11745864_x_at) / Fold change /veh SAMD14 (11745864_x_at) / RFU NPB (11741838_a_at) / Fold change /veh NPB (11741838_a_at) / RFU TMPRSS6 (11731388_a_at) / Fold change /veh TMPRSS6 (11731388_a_at) / RFU KRTAP10-2 (11738614_at) / Fold change /veh KRTAP10-2 (11738614_at) / RFU ARHGAP8 /// PRR5-ARHGAP8 (11727945_x_at) / Fold change /veh ARHGAP8 /// PRR5-ARHGAP8 (11727945_x_at) / RFU KRTAP5-7 /// NADSYN1 (11734609_at) / Fold change /veh KRTAP5-7 /// NADSYN1 (11734609_at) / RFU RASL12 (11751679_a_at) / Fold change /veh RASL12 (11751679_a_at) / RFU CDKN2B (11736163_a_at) / Fold change /veh CDKN2B (11736163_a_at) / RFU PRF1 (11729649_at) / Fold change /veh PRF1 (11729649_at) / RFU, ZNF638 /// ZNF638-IT1 / Fold change vs veh, ZNF638 /// ZNF638-IT1 / RFU, PANK3 / Fold change vs veh, PANK3 / RFU, SH3YL1 / Fold change vs veh, SH3YL1 / RFU, ZEB2 / Fold change vs veh, ZEB2 / RFU, NRIP1 / Fold change vs veh, NRIP1 / RFU, PTTG1IP / Fold change vs veh, PTTG1IP / RFU, CAPN2 / Fold change vs veh, CAPN2 / RFU, MED14 / Fold change vs veh, MED14 / RFU, SNORA58 / Fold change vs veh, SNORA58 / RFU, C1orf63 / Fold change vs veh, C1orf63 / RFU, LRRFIP1 / Fold change vs veh, LRRFIP1 / RFU, NDUFAF7 / Fold change vs veh, NDUFAF7 / RFU, SLC12A2 / Fold change vs veh, SLC12A2 / RFU, IBTK / Fold change vs veh, IBTK / RFU, ESF1 / Fold change vs veh, ESF1 / Fold change vs veh, TMEM50B / RFU, TAOK1 / Fold change vs veh, TAOK1 / RFU, ACBD3 / Fold change vs veh, ACBD3 / RFU, TMA16 / Fold change vs veh, TMA16 / RFU, RWDD3 / Fold change vs veh, RWDD3 / RFU, BCAT1 / Fold change vs veh, BCAT1 / RFU, EDEM3 / Fold change vs veh, EDEM3 / RFU, TMEM33 / Fold change vs veh, TMEM33 / RFU, WDR75 / Fold change vs veh, WDR75 / RFU, AHCTF1 / Fold change vs veh, AHCTF1 / RFU, TFRC / Fold change vs veh, TFRC / RFU, ZDHHC17 / Fold change vs veh, ZDHHC17 / RFU, NOM1 / Fold change vs veh, NOM1 / RFU, ARL8B / Fold change vs veh, ARL8B / RFU, ZBTB11 / Fold change vs veh, ZBTB11 / RFU, TAMM41 / Fold change vs veh, TAMM41 / RFU, KIAA1704 /// LOC100996395 / Fold change vs veh, KIAA1704 /// LOC100996395 / RFU, ING1 / Fold change vs veh, ING1 / RFU, TRMT61B / Fold change vs veh, TRMT61B / RFU, FUBP3 / Fold change vs veh, FUBP3 / RFU, TP53 / Fold change vs veh, TP53 / RFU, TNKS2 / Fold change vs veh, TNKS2 / RFU, ZFP14 / Fold change vs veh, ZFP14 / RFU, ACTR2 / Fold change vs veh, ACTR2 / RFU, PPP3R1 / Fold change vs veh, PPP3R1 / RFU, PIK3R1 / Fold change vs veh, PIK3R1 / RFU, HNRNPA1 / Fold change vs veh, HNRNPA1 / RFU, RNF170 / Fold change vs veh, RNF170 / RFU, ZNF28 / Fold change vs veh, ZNF28 / RFU, RNGTT / Fold change vs veh, RNGTT / RFU, OGT / Fold change vs veh, OGT / RFU, BRD1 / Fold change vs veh, BRD1 / RFU, MARS / Fold change vs veh, MARS / RFU, ZNF655 / Fold change vs veh, ZNF655 / RFU, FAHD1 / Fold change vs veh, FAHD1 / RFU, BDP1 / Fold change vs veh, BDP1 / RFU, LRRCC1 / Fold change vs veh, LRRCC1 / RFU, ARID1A / Fold change vs veh, ARID1A / RFU, ZNF146 / Fold change vs veh, ZNF146 / RFU, ZNF330 / Fold change vs veh, ZNF330 / RFU, GPN3 / Fold change vs veh, GPN3 / RFU, C9orf123 / Fold change vs veh, C9orf123 / RFU, N4BP2L2 / Fold change vs veh, N4BP2L2 / RFU, ARFIP1 / Fold change vs veh, ARFIP1 / RFU, FAM179B / Fold change vs veh, FAM179B / RFU, BCL10 / Fold change vs veh, BCL10 / RFU, UHRF1BP1L / Fold change vs veh, UHRF1BP1L / RFU, BET1 / Fold change vs veh, BET1 / RFU, CNOT2 / Fold change vs veh, CNOT2 / RFU, ZNF268 / Fold change vs veh, ZNF268 / Fold change vs veh, ZNF507 / RFU, DGCR2 / Fold change vs veh, DGCR2 / RFU, WDSUB1 / Fold change vs veh, WDSUB1 / Fold change vs veh, HSP90B1 /// MIR3652 / RFU, ADSS / Fold change vs veh, ADSS / RFU, GK / Fold change vs veh, GK / RFU, ZNF148 / Fold change vs veh, ZNF148 / RFU, TAF9 / Fold change vs veh, TAF9 / RFU, SLC1A5 / Fold change vs veh, SLC1A5 / RFU, SLMO2 / Fold change vs veh, SLMO2 / RFU, ABCC4 / Fold change vs veh, ABCC4 / RFU, LOC101060439 /// RAP1B / Fold change vs veh, LOC101060439 /// RAP1B / RFU, RFX7 / Fold change vs veh, RFX7 / RFU, GTPBP10 / Fold change vs veh, GTPBP10 / RFU, CNEP1R1 / Fold change vs veh, CNEP1R1 / RFU, BIVM-ERCC5 /// ERCC5 / Fold change vs veh, BIVM-ERCC5 /// ERCC5 / RFU, ILF3 / Fold change vs veh, ILF3 / RFU 11762660_at / Fold change /veh 11762660_at / RFU VCAN (11757783_s_at) / Fold change /veh VCAN (11757783_s_at) / RFU DDX43 (11728927_at) / Fold change /veh DDX43 (11728927_at) / RFU KRT8 (11758188_x_at) / Fold change /veh KRT8 (11758188_x_at) / RFU NKD1 (11759106_at) / Fold change /veh NKD1 (11759106_at) / RFU SRD5A1 (11742802_a_at) / Fold change /veh SRD5A1 (11742802_a_at) / RFU TPSAB1 /// TPSB2 (11721975_s_at) / Fold change /veh TPSAB1 /// TPSB2 (11721975_s_at) / RFU GSTM3 (11746129_a_at) / Fold change /veh GSTM3 (11746129_a_at) / RFU IL23R (11737362_x_at) / Fold change /veh IL23R (11737362_x_at) / RFU TMEM51 (11727254_a_at) / Fold change /veh TMEM51 (11727254_a_at) / RFU PIWIL2 (11732686_x_at) / Fold change /veh PIWIL2 (11732686_x_at) / RFU ORM1 (11744905_x_at) / Fold change /veh ORM1 (11744905_x_at) / RFU CCDC152 (11743942_at) / Fold change /veh CCDC152 (11743942_at) / RFU ECM1 (11717891_a_at) / Fold change /veh ECM1 (11717891_a_at) / RFU IL23R (11748794_a_at) / Fold change /veh IL23R (11748794_a_at) / RFU TNFAIP8L3 (11732012_x_at) / Fold change /veh TNFAIP8L3 (11732012_x_at) / RFU MBOAT4 (11741988_at) / Fold change /veh MBOAT4 (11741988_at) / RFU 11764193_at / Fold change /veh 11764193_at / RFU TMEM53 (11763286_at) / Fold change /veh TMEM53 (11763286_at) / RFU MAGEB2 (11727129_at) / Fold change /veh MAGEB2 (11727129_at) / RFU TMEM200A (11744735_a_at) / Fold change /veh TMEM200A (11744735_a_at) / RFU CCDC152 (11751479_a_at) / Fold change /veh CCDC152 (11751479_a_at) / RFU FAM211A (11726209_a_at) / Fold change /veh FAM211A (11726209_a_at) / RFU RGS16 (11746705_a_at) / Fold change /veh RGS16 (11746705_a_at) / RFU VCAN (11755009_s_at) / Fold change /veh VCAN (11755009_s_at) / RFU RHOB (11743442_s_at) / Fold change /veh RHOB (11743442_s_at) / RFU RGS16 (11720943_a_at) / Fold change /veh RGS16 (11720943_a_at) / RFU RGS16 (11720944_at) / Fold change /veh RGS16 (11720944_at) / RFU, VPS4B / Fold change vs veh, VPS4B / RFU, CREB1 / Fold change vs veh, CREB1 / RFU, DNAJC13 / Fold change vs veh, DNAJC13 / RFU, GNAQ / Fold change vs veh, GNAQ / RFU, CDK5R1 / Fold change vs veh, CDK5R1 / RFU, ZRANB3 / Fold change vs veh, ZRANB3 / RFU, CUL4A / Fold change vs veh, CUL4A / RFU, CCNY / Fold change vs veh, CCNY / RFU, UFL1 / Fold change vs veh, UFL1 / RFU, COG3 / Fold change vs veh, COG3 / RFU, DIAPH2 / Fold change vs veh, DIAPH2 / RFU, SKA2 / Fold change vs veh, SKA2 / RFU, AFF3 / Fold change vs veh, AFF3 / RFU, LMF1 / Fold change vs veh, LMF1 / RFU, IPO11 / Fold change vs veh, IPO11 / RFU, DFFB / Fold change vs veh, DFFB / RFU, FOXP1 / Fold change vs veh, FOXP1 / RFU, CARD8 / Fold change vs veh, CARD8 / RFU, STRN3 / Fold change vs veh, STRN3 / RFU, ADK / Fold change vs veh, ADK / RFU, RASSF2 / Fold change vs veh, RASSF2 / RFU, WIPF1 / Fold change vs veh, WIPF1 / RFU, LARP1B / Fold change vs veh, LARP1B / RFU, RASA1 / Fold change vs veh, RASA1 / RFU, RB1 / Fold change vs veh, RB1 / RFU, PPFIA1 / Fold change vs veh, PPFIA1 / RFU, MAT2A / Fold change vs veh, MAT2A / RFU, CCT5 / Fold change vs veh, CCT5 / RFU, WDR92 / Fold change vs veh, WDR92 / RFU, CUX1 / Fold change vs veh, CUX1 / RFU, TTC7A / Fold change vs veh, TTC7A / RFU, TMEM135 / Fold change vs veh, TMEM135 / RFU, DEPTOR / Fold change vs veh, DEPTOR / RFU, CPM / Fold change vs veh, CPM / RFU, DNAJB6 / Fold change vs veh, DNAJB6 / RFU, CACNA2D3 / Fold change vs veh, CACNA2D3 / RFU, DTX4 / Fold change vs veh, DTX4 / RFU, TFCP2 / Fold change vs veh, TFCP2 / RFU, GMCL1 /// GMCL1P1 / Fold change vs veh, GMCL1 /// GMCL1P1 / RFU, AEBP2 / Fold change vs veh, AEBP2 / RFU, SNHG1 /// SNORD22 /// SNORD25 /// SNORD26 /// SNORD27 /// SNORD28 /// SNORD29 /// SNORD31 / Fold change vs veh, SNHG1 /// SNORD22 /// SNORD25 /// SNORD26 /// SNORD27 /// SNORD28 /// SNORD29 /// SNORD31 / Fold change (Aza/veh), C12orf56 (ProbeSet 11735607_a_at) / Fold change (ACY-1035/veh), C12orf56 (ProbeSet 11735607_a_at) / Fold change (Aza/veh), FGFR1OP (ProbeSet 11751329_s_at) / Fold change (ACY-1035/veh), FGFR1OP (ProbeSet 11751329_s_at) / Fold change (Aza/veh), VPS36 (ProbeSet 11739960_a_at) / Fold change (ACY-1035/veh), VPS36 (ProbeSet 11739960_a_at) / RFU SYPL1 (11715823_x_at) / Fold change /veh SYPL1 (11715823_x_at) / RFU IGFBP7 (11715501_s_at) / Fold change /veh IGFBP7 (11715501_s_at) / RFU REEP3 (11722064_at) / Fold change /veh REEP3 (11722064_at) / RFU IGLL1 (11728026_x_at) / Fold change /veh IGLL1 (11728026_x_at): dose or concentration left out as unconfirmed
Details: ProbeSet 11741123_x_at; LIST D

Nc1ccc(-c2cccs2)cc1NC(=O)c1ccc2c(c1)cc(C1CC1)n2CCN1CCOCC1 [ACY-1035]
RFU, ADK: 253.83 RFU
